Data reported in patent US20230407243A1, “GENETIC PLATFORM TO INVESTIGATE THE FUNCTIONS OF BACTERIAL DRUG EFFLUX PUMPS” (priority 2022, published 2023).
Where two headings read alike, the source gives them in different places.

Assays:
Format in all cases: cell-based, Escherichia coli
[1] = test system: ΔtolC-Pore
Method in brief: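 Read-out was OD600, the MIC being the lowest concentration without growth in a CLSI checkerboard run in MHB II. Each drug's MIC in combination was divided by its MIC alone and the two ratios summed as FICI. Cut-offs: <0.5 synergy, >0.5–1.0 additive, >1.0–2.0 indifferent, >2.0 antagonism.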

[2] = test system: EKO-35 strains producing different efflux pumps (EKO-35 araC::X); assay: Checkerboard synergy (FICI) of PAβN or NMP with antibiotics
Experimental: (§1) Synergy measurement using checkerboard analysis was performed in 96-well microtiter plates using the microdilution broth method, according to CLSI guidelines (Patel J. B., 2015). The cell inocula were prepared using the colony resuspension method. The minimum inhibitory concentrations (MICs) were defined as the lowest concentration that provided no growth, as determined by measurement of the OD600nm using a Synergy H1 microplate reader (BioTek). Susceptibility testing was performed in MHB II with a final volume of 100 μL. PAI3N (Bachem Americas) was solubilized in MHB II. […] Solvent controls were included in each plate.
(§2) The Fractional Inhibitory Concentration Index (FICI) was used to assess the synergy of PAI3N in combination with different antibiotics. The FICI represents the ΣFIC of each drug. The FICI for each drug was calculated using the following formula: FICI=FICA+FICB=(CA/MICA)+(CB/MICB). Where MICA and MICB are the MICs of drugs A (PAI3N/NMP) and B (antibiotic) alone, and CA and CB are the MICs of the drugs in combination. The effects of PAβN or NMP in combination with antibiotics were classified as: synergistic (FICI<0.5), additive (FICI>0.5-1.0), indifferent (FICI>1.0-2.0), and antagonistic (FICI>2.0). Fold increases in resistance provided by efflux pumps were calculated by dividing the MIC values of strains expressing efflux pumps by the MIC value of EKO-35.

[3] = test system: EKO-35 porinated strain expressing acrB; assay: Checkerboard synergy (FICI), porinated strain
Experimental: as §1, §2

[4] = test system: EKO-35-Pore acrBD408A (functionally inactive AcrB variant); assay: Checkerboard synergy (FICI), porinated strain
Experimental: as §1, §2

[5] = test system: EKO-35-Pore; assay: Checkerboard synergy (FICI), porinated strain
Experimental: as §1, §2

[6] = test system: wild-type K-12-Pore; assay: Checkerboard synergy (FICI), porinated strain
Experimental: as §1, §2

[7] = strain ΔtolC Pore, NMP + antibiotic
[8] = strain ΔtolC Pore, antibiotic alone
[9] = strain ΔtolC Pore, antibiotic in combination with NMP
[10] = EKO-35 mdtEF, PAβN + antibiotic
[11] = strain EKO-35 acrB, NMP + antibiotic
[12] = strain EKO-35 acrB, antibiotic in combination with NMP
[13] = strain EKO-35 acrEF, NMP + antibiotic
[14] = strain EKO-35 acrEF, antibiotic alone
[15] = strain EKO-35 acrEF, antibiotic in combination with NMP
[16] = strain EKO-35 mdtEF, NMP + antibiotic
[17] = EKO-35 acrB Pore, NMP + antibiotic
[18] = EKO-35 acrB Pore, PAβN + antibiotic
[19] = strain EKO-35 acrB Pore, NMP + antibiotic
[20] = strain EKO-35 acrB Pore, antibiotic alone
[21] = strain EKO-35 acrB Pore, antibiotic in combination with NMP
[22] = EKO-35 acrBD408A Pore, NMP + antibiotic
[23] = EKO-35 acrBD408A Pore, PAβN + antibiotic
[24] = strain EKO-35 acrBD408A Pore, NMP + antibiotic
[25] = strain EKO-35 acrBD408A Pore, antibiotic in combination with NMP
[26] = porinated efflux-deficient strains
[27] = strain EKO-35 Pore, NMP + antibiotic
[28] = strain EKO-35 Pore, antibiotic alone
[29] = strain K-12 Pore, NMP + antibiotic
[30] = strain K-12 Pore, antibiotic alone
[31] = strain K-12 Pore, antibiotic in combination with NMP

With CC[C@H]1OC(=O)[C@H](C)[C@@H](O[C@H]2C[C@@](C)(OC)[C@@H](O)[C@H](C)O2)[C@H](C)[C@@H](O[C@@H]2O[C@H](C)C[C@H](N(C)C)[C@H]2O)[C@](C)(O)C[C@@H](C)C(=O)[C@H](C)[C@@H](O)[C@]1(C)O [erythromycin] the Effect [1, 7] was “Synergistic (Synergy (FICI ≤0.5))”, the FICI [1, 7] was 0.625 and the “MICb Alone” value [1, 8] was 4 µg/mL. For the same molecule, the “MICb Combined” value [1, 9] was 0.5 µg/mL, the Effect ([1]; ΔtolC Pore, NMP + antibiotic) was “Synergistic” and the FICI ([1]; ΔtolC Pore, NMP + antibiotic) was 0.625. For the same molecule, the Effect ([1]; ΔtolC Pore, PAβN + antibiotic) was “Synergistic”, the FICI ([1]; ΔtolC Pore, PAβN + antibiotic) was 0.188 and the “MICb Alone” value ([1]; ΔtolC Pore, antibiotic alone (PAβN checkerboard)) was 1 µg/mL. For the same molecule, the “MICb Combined” value ([1]; ΔtolC Pore, antibiotic in combination with PAβN) was 0.063 µg/mL, the Effect ([2]; EKO-35 acrB, NMP + antibiotic) was “Additive” and the FICI ([2]; EKO-35 acrB, NMP + antibiotic) was 0.531. For the same molecule, the Effect ([2]; EKO-35 acrB, PAβN + antibiotic) was “Synergistic”, the FICI ([2]; EKO-35 acrB, PAβN + antibiotic) was 0.078 and the “MICb Alone” value ([2]; EKO-35 acrB, antibiotic alone (PAβN checkerboard)) was 64 µg/mL. For the same molecule, the “MICb Combined” value ([2]; EKO-35 acrB, antibiotic in combination with PAβN) was 1 µg/mL, the FICI ([2]; EKO-35 acrEF, NMP + antibiotic) was 2.000 and the Effect ([2]; EKO-35 acrEF, PAβN + antibiotic) was “Synergistic”. For the same molecule, the “MICb Alone” value ([2]; EKO-35 acrEF, antibiotic alone (PAβN checkerboard)) was 8 µg/mL, the “MICb Combined” value ([2]; EKO-35 acrEF, antibiotic in combination with PAβN) was 0.5 µg/mL and the Effect ([2]; EKO-35 mdtEF, NMP + antibiotic) was “Synergistic”. The FICI ([2]; EKO-35 mdtEF, NMP + antibiotic) was 0.250, the Effect [2, 10] was “Synergistic” and the FICI [2, 10] was 0.094. The “MICb Alone” value ([2]; EKO-35 mdtEF, antibiotic alone (PAβN checkerboard)) was 16 µg/mL, the “MICb Combined” value ([2]; EKO-35 mdtEF, antibiotic in combination with PAβN) was 0.5 µg/mL and the Effect ([2]; EKO-35 mexCD, NMP + antibiotic) was “Synergistic”. The Effect ([2]; EKO-35 mexCD, PAβN + antibiotic) was “Synergistic”, the “MICb Alone” value ([2]; EKO-35 mexCD, antibiotic alone (PAβN checkerboard)) was 8 µg/mL and the “MICb Combined” value ([2]; EKO-35 mexCD, antibiotic in combination with PAβN) was 0.5 µg/mL. For the same molecule, the Effect [2, 11] was “Additive (additive (FICI >0.5-1.0))”, the FICI [2, 11] was 0.531 and the “MICb Combined” value [2, 12] was 64 µg/mL. The Effect [2, 13] was “— (indifferent (FICI >1.0))”, the FICI [2, 13] was 2.000 and the “MICb Alone” value [2, 14] was 8 µg/mL. The “MICb Combined” value [2, 15] was 8 µg/mL, the Effect [2, 16] was “Synergistic (Synergy (FICI ≤0.5))” and the FICI [2, 16] was 0.250. For the same molecule, the “MICb Alone” value ([2]; strain EKO-35 mdtEF, antibiotic alone) was 64 µg/mL, the “MICb Combined” value ([2]; strain EKO-35 mdtEF, antibiotic in combination with NMP) was 8 µg/mL and the Effect ([2]; strain EKO-35 mexCD, NMP + antibiotic) was “Synergistic (Synergy (FICI ≤0.5))”. The “MICb Alone” value ([2]; strain EKO-35 mexCD, antibiotic alone) was 16 µg/mL, the “MICb Combined” value ([2]; strain EKO-35 mexCD, antibiotic in combination with NMP) was 2 µg/mL and the Effect [3, 17] was “Additive”. The FICI [3, 17] was 0.563, the Effect [3, 18] was “Synergistic” and the FICI [3, 18] was 0.078. The “MICb Alone” value ([3]; EKO-35 acrB Pore, antibiotic alone (PAβN checkerboard)) was 32 µg/mL, the “MICb Combined” value ([3]; EKO-35 acrB Pore, antibiotic in combination with PAβN) was 0.5 µg/mL and the Effect [3, 19] was “Additive (additive (FICI >0.5-1.0))”. The FICI [3, 19] was 0.563, the “MICb Alone” value [3, 20] was 8 µg/mL and the “MICb Combined” value [3, 21] was 0.5 µg/mL. The Effect [4, 22] was “Additive”, the FICI [4, 22] was 0.735 and the Effect [4, 23] was “Additive”. For the same molecule, the FICI [4, 23] was 0.735, the “MICb Alone” value ([4]; EKO-35 acrBD408A Pore, antibiotic alone (PAβN checkerboard)) was 0.13 µg/mL and the “MICb Combined” value ([4]; EKO-35 acrBD408A Pore, antibiotic in combination with PAβN) was 0.063 µg/mL. For the same molecule, the Effect [4, 24] was “Additive (additive (FICI >0.5-1.0))”, the FICI [4, 24] was 0.735 and the “MICb Alone” value ([4]; strain EKO-35 acrBD408A Pore, antibiotic alone) was 0.13 µg/mL. For the same molecule, the “MICb Combined” value [4, 25] was 0.063 µg/mL, the Effect ([5]; EKO-35 Pore, NMP + antibiotic) was “Additive” and the FICI ([5]; EKO-35 Pore, NMP + antibiotic) was 0.770. For the same molecule, the Effect ([5]; EKO-35 Pore, PAβN + antibiotic) was “Additive”, the FICI ([5]; EKO-35 Pore, PAβN + antibiotic) was 0.610 and the “MICb Alone” value ([5]; EKO-35 Pore, antibiotic alone (PAβN checkerboard)) was 0.13 µg/mL. For the same molecule, the “MICb Combined” value ([5]; EKO-35 Pore, antibiotic in combination with PAβN) was 0.063 µg/mL, the “interaction of NMP in combination with the labelled antibiotic (FICI)” value [5, 26] was “no longer synergistic” and the “interaction of PAβN in combination with the labelled antibiotic (FICI)” value [5, 26] was “no longer synergistic”. For the same molecule, the Effect [5, 27] was “Additive (additive (FICI >0.5-1.0))”, the FICI [5, 27] was 0.770 and the “MICb Alone” value [5, 28] was 0.25 µg/mL. For the same molecule, the “MICb Combined” value ([5]; strain EKO-35 Pore, antibiotic in combination with NMP) was 0.13 µg/mL, the FICI ([6]; K-12 Pore, NMP + antibiotic) was 1.000 and the Effect ([6]; K-12 Pore, PAβN + antibiotic) was “Synergistic”. For the same molecule, the “MICb Alone” value ([6]; K-12 Pore, antibiotic alone (PAβN checkerboard)) was 4 µg/mL, the “MICb Combined” value ([6]; K-12 Pore, antibiotic in combination with PAβN) was 0.25 µg/mL and the Effect [6, 29] was “— (indifferent (FICI >1.0))”. The FICI [6, 29] was 1.000, the “MICb Alone” value [6, 30] was 16 µg/mL and the “MICb Combined” value [6, 31] was 8 µg/mL.
With CC[n+]1c(-c2ccccc2)c2cc(N)ccc2c2ccc(N)cc21 [ethidium bromide] the Effect [1, 7] was “Additive (additive (FICI >0.5-1.0))”, the FICI [1, 7] was 0.500 and the “MICb Alone” value [1, 8] was 1.95 µg/mL. The “MICb Combined” value [1, 9] was 0.488 µg/mL, the FICI ([1]; ΔtolC Pore, NMP + antibiotic) was 0.500 and the FICI ([2]; EKO-35 acrB, NMP + antibiotic) was 0.253. The FICI ([2]; EKO-35 acrEF, NMP + antibiotic) was 0.500, the Effect [2, 11] was “Synergistic (Synergy (FICI ≤0.5))” and the FICI [2, 11] was 0.253. For the same molecule, the “MICb Alone” value ([2]; strain EKO-35 acrB, antibiotic alone) was 15.6 µg/mL, the “MICb Combined” value [2, 12] was 2 µg/mL and the Effect [2, 13] was “Synergistic (Synergy (FICI ≤0.5))”. The FICI [2, 13] was 0.500, the “MICb Alone” value [2, 14] was 2 µg/mL and the “MICb Combined” value [2, 15] was 0.5 µg/mL. For the same molecule, the FICI [3, 17] was 0.191, the Effect [3, 19] was “Synergistic (Synergy (FICI ≤0.5))” and the FICI [3, 19] was 0.191. The “MICb Alone” value [3, 20] was 15.6 µg/mL, the “MICb Combined” value [3, 21] was 2 µg/mL and the FICI [4, 22] was 1.000. For the same molecule, the Effect [4, 24] was “— (indifferent (FICI >1.0))”, the FICI [4, 24] was 1.000 and the “MICb Combined” value [4, 25] was 0.122 µg/mL. For the same molecule, the FICI ([5]; EKO-35 Pore, NMP + antibiotic) was 0.508, the Effect [5, 27] was “Additive (additive (FICI >0.5-1.0))” and the FICI [5, 27] was 0.508. For the same molecule, the “MICb Alone” value [5, 28] was 0.488 µg/mL, the Effect [6, 29] was “Synergistic (Synergy (FICI ≤0.5))” and the “MICb Alone” value [6, 30] was 250 µg/mL. For the same molecule, the “MICb Combined” value [6, 31] was 31.3 µg/mL.
